Read-outs that look alike come from different tables or passages of the source.
Key:
[1] = tested on: cellular uptake of 1 in HeLa Kyoto cells; experiment: cells; type: cell-based; conditions: HeLa; for minimal effective concentration / IC50: HeLa Kyoto, removal, tinc 0.5 h with 1 (10 µM); for minimal effective concentration: read-out: MIC, inhibition of cellular uptake of 1; for IC50: read-out: IC50, inhibition of cellular uptake of 1; for MIC (concentration that causes ∼15% reduction of reporter uptake), against reporter 1: pre-incubation time not given (Fig. 2: 1 h pre-incubation, 30 min with reporter; some 15 min)
Description: (§1) With COCs 1 and 2 as cell-penetrating reporters, a fully automated, fluorescent microscopy image-based high-content high-throughput (HCHT)[19] inhibitor screening assay was developed. HeLa cells in multiwell plates are incubated with a reporter at constant and inhibitors at varying concentrations and incubation times. Hindered reporter uptake then causes decrease of fluorescence inside of cells (Fig. 3a). Automated data analysis[19] was established to extract average fluorescence intensity per cell and, at the same time, cell viability from propidium iodide negative nuclei count (Fig. 3 and S3–S6 ^†). Standard assay conditions consisted of pre-incubation of HeLa cells with inhibitors for different periods of time, followed by the removal of inhibitors and the addition of reporters, thus excluding possible interactions between the two in the extracellular environment. In alternative co-incubation conditions, inhibitors were not removed before the addition of reporters to allow for eventual interactions between the two.
4. High-Content High-Throughput (HCHT) Inhibitor Screening
4.1. General Procedure for HCHT Inhibitor Screening
4.1.1. Pre-Incubation of Inhibitors
HeLa Kyoto cells were seeded at 1.2 ×10^4 cells/well in FluoroBrite DMEM + 10% FBS on μ-Plate 96-well Black ibiTreat sterile and kept at 37 °C with 5% CO2 overnight. Next day, serial dilutions of the inhibitors in PBS (10x final concentration), reporter 1 or 2 (100 μM in PBS) and a solution of Hoechst 33342 (100 μg/mL) and PI (10 μg/mL) in PBS were prepared freshly in a 96-well V-bottom plate. Then, cells were washed with PBS ([…]) and the media was exchanged to FluoroBrite DMEM (4 x 150 μL/well) using a plate washer (Biotek EL406®), keeping always a final volume of 135 μL/well. The inhibitor solutions from the V-bottom plate were added to the cells (15 μL/well, 10x final concentration in PBS) using an electronic multichannel pipettes to reach a final volume of 150 μL/well. Cells were incubated for the time of interest (for details of each inhibitors, see Section 4.3 and 4.4) at 37 °C with 5%
CO2. After this, cells were washed again using the plate washer and reporter solution 1 or 2 from the V-bottom plate was added (15 μL/well) using an electronic multichannel pipettes to reach a final volume of 150 μL/well and a final concentration of 10 μM, except for the control wells, where only PBS was added (15 μL/well). After 30 min of incubation at 37 °C with 5% CO2, the plate was washed again using the plate washer. Then, the solution of Hoechst 33342 and PI from V-bottom plate was added (15 μL/well) using an electronic multichannel pipettes to reach a final volume of 150 μL/well. After 15 min of incubation at 37 °C with 5% CO2, the plate was washed one last time and the cells were kept in clean FluoroBrite DMEM. During imaging, samples were kept at 37 °C with 5% CO2 in the microscope.
4.1.2. Co-Incubation of Inhibitors and Reporters […]
serial dilutions of the inhibitors in PBS (10x final concentration), reporter 1 or 2 (110 μM in […]
freshly in a 96-well V-bottom plate. Then, cells were washed with the plate washer. The inhibitor solutions from the V-bottom plate were added to the cells (15 μL/well, 10x final concentration in PBS) using an electronic multichannel pipettes to reach a final volume of 150 μL/well. Cells were incubated for the time of interest (for details of each inhibitors, see Section 4.3 and 4.4) at 37 °C with 5% CO2. Reporter solution 1 or 2 from V-bottom plate was then added (15 μL/well) using an electronic multichannel pipettes to reach a final volume of 165 μL/well and a final concentration of 10 μM 30 min before the next washing process, except for the control wells, where only PBS was added (15 μL/well). The plate was washed again using the plate washer. The solution of Hoechst 33342 and PI from V-bottom plate was added (15 μL/well) using an electronic multichannel pipettes to reach a final volume of 150 μL/well. After […]

[2] = Relative cell viability in HCHT screening (propidium iodide negative nuclei count); type: cell-based; conditions: human; for GI50: HeLa, removal, tinc 0.5 h with 1 (10 µM), read-out: GI50, concentration causing 50% cell growth inhibition
Description: as §1
To be able to extract the fluorescent integrated intensity information (sum of the intensities of all the pixels included in the mask) from the green channel for live cell only, the image analysis pipeline contains several steps of cell filtering and selection:
1) Firstly, PI is used to stain any remaining nuclei of dead cell. In the analysis pipeline, all the “dead” nuclei are detected based on their fluorescent intensity in the PI channel (Figure […]
Fig. S4 (A) PI positive nuclei mask (fluorescent intensity threshold of 1000). (B) Overlap image of dead nuclei mask and original all cell body mask. (C) Resulting cell mask after removing any cell marked by a dead nucleus, new mask is called “Live Cell”. Scale bar: 50 μm.
2) Elimination of non-full cells from the border of the image is performed, to avoid inaccurate fluorescent integrated intensity quantification (fluorescent integrated intensity = sum of intensity of all the pixel of the object) (Figure S5).
(1 picture or pasted object on this page, not shown here)
4.3. HCHT Inhibitor Screening with ETP as Reporter […]
(§2) Relative cell viability (RV) for each condition in the presence of inhibitors were calculated using the count value of living cells by dividing the count value of living cells with addition of reporter 1, Hoechst 33342 and PI, for each set of experiments. Duplicates were performed for each condition. The resulting dependence of the relative cell viability (RVrel) to the concentration of inhibitors (cinhibitor) was plotted and fitted with Equation (S2) to retrieve the concentration causing 50% cell growth inhibition (GI50) value and the Hill coefficient (n).
RVrel = 1 / (1 + (GI50 / cinhibitor)n) (S2)
Note: Reporter 1 were not toxic for 1 h at 10 μM.S2 Also in this study, the count value of living cells with addition of reporter 1, Hoechst 33342 and PI is always similar to that of living cells with only addition of Hoechst 33342 and PI.
as §2, with “with” for “in the presence of”, “2,” for “1,”
Note: Reporter 2 were not toxic for 24 h at 10 μM.S3 Also in this study, the count value of living cells with addition of reporter 2, Hoechst 33342 and PI is always similar to that of living cells with only addition of Hoechst 33342 and PI.
4.4.1. Screening with Disulfides as Inhibitors
4.4.1.1. Screening with ETP as Inhibitors
Fig. S35 Automatically analyzed HCHT data showing fluorescence intensity (filled symbols) and relative viability (empty symbols) of HeLa cells after pre-incubation with 3 for 1 h (blue […]

[3] = GI50, concentration causing 50% cell growth inhibition
[4] = 0.5 h, tpre 0.5 h with inhibitor

| Compound | Inhibition of uptake of reporter 1, in words [1] | minimal effective concentration ([1]; 1 h, tpre 1 h with inhibitor) | minimal effective concentration ([1]; 2 h, tpre 2 h with inhibitor) | IC50 ([1]; tpre 1 h with inhibitor) | IC50 ([1]; tpre 2 h with inhibitor) | GI50 at 1 h [2, 3] | GI50 at 2 h [2, 3] | minimal effective concentration ([1]; 4 h, tpre 4 h with inhibitor) | IC50 ([1]; tpre 4 h with inhibitor) | GI50 ([2]; tpre 1 h with inhibitor) | GI50 ([2]; tpre 2 h with inhibitor) | GI50 ([2]; tpre 4 h with inhibitor) | GI50 at 4 h [2, 3] | IC50 [1, 4] | minimal effective concentration [1, 4] | GI50 ([2]; tpre 0.5 h with inhibitor) | minimal effective concentration ([1]; 0.25 h, tpre 0.25 h with inhibitor) | IC50 ([1]; tpre 0.25 h with inhibitor) | MIC (concentration that causes ∼15% reduction of reporter uptake), against reporter 1 [1] | GI50 ([2]; tpre 0.25 h with inhibitor) |
| --- | --- | --- | --- | --- | --- | --- | --- | --- | --- | --- | --- | --- | --- | --- | --- | --- | --- | --- | --- | --- |
| C=CCS[S+]([O-])CC=C (stereo not shown) [compound 25, allicin, reference compound] | disappointing | > 500 µM | > 500 µM | > 500 µM | > 500 µM | > 500 µM | > 500 µM | – | – | – | – | – | – | – | – | – | – | – | – | – |
| O=C(O)C1CS[S+]([O-])C1 (stereo not shown) [compound 23] | – | 1000 µM | 1000 µM | > 2000 µM | > 2000 µM | – | – | 900 µM | > 1000 µM | > 2000 µM | 1780 ± 120 µM | 1470 ± 70 µM | – | – | – | – | – | – | – | – |
| O=C(O)CCCCC1CCSS1 (stereo not shown) [compound 30] | – | > 2000 µM | > 2000 µM | > 2000 µM | > 2000 µM | > 2000 µM | > 2000 µM | > 2000 µM | > 2000 µM | – | – | – | > 2000 µM | – | – | – | – | – | – | – |
| O=C(O)C1CSSC1 [compound 28] | – | > 2000 µM | > 2000 µM | > 2000 µM | > 2000 µM | – | – | > 2000 µM | > 2000 µM | > 2000 µM | > 2000 µM | > 2000 µM | – | – | – | – | – | – | – | – |
| O=C(CN1C(=O)C2SSC1C(=O)N2CCOc1ccccc1)NCCS(=O)(=O)O (stereo not shown) [compound 8] | – | 2 µM | 6 µM | > 100 µM | > 100 µM | – | – | – | – | > 100 µM | > 100 µM | – | – | > 100 µM | 10 µM | > 100 µM | – | – | – | – |
| CNC(=O)[C@H](CS[S+]([O-])C[C@H](NC(=O)OC(C)(C)C)C(=O)NC)NC(=O)OC(C)(C)C (stereo partly shown) [compound 26] | disappointing | > 1000 µM | – | > 1000 µM | – | – | – | – | – | > 1000 µM | – | – | – | – | – | – | – | – | – | – |
| O[C@@H]1CSSC[C@@H]1O [compound 29] | – | > 2000 µM | > 2000 µM | > 2000 µM | > 2000 µM | – | – | > 2000 µM | > 2000 µM | > 2000 µM | > 2000 µM | > 2000 µM | – | – | – | – | – | – | – | – |
| O=C(O)CNC(=O)c1ccc2c(c1)S[S+]([O-])S2 (stereo not shown) [compound 24] | – | > 20 µM | > 20 µM | > 20 µM | > 20 µM | – | – | – | – | > 20 µM | > 20 µM | – | – | > 20 µM | > 20 µM | > 20 µM | – | – | – | – |
| O=C(O)CN1C(=O)C2SSC1C(=O)N2CCOc1ccccc1 (stereo not shown) [compound 5] | – | 0.1 µM | 0.1 µM | 0.86 ± 0.06 µM | 0.98 ± 0.07 µM | – | – | 0.1 µM | 1.42 ± 0.26 µM | 7 ± 0.6 µM | ~4.7 µM | ~4.1 µM | – | 1.1 ± 0.05 µM | 0.1 µM | 10.3 ± 0.4 µM | – | – | – | – |
| CS(=O)(=O)c1nc2ccccc2o1 [compound 11] | – | 8 µM | – | 38.9 ± 4.2 µM | – | – | – | – | – | 97 ± 8 µM | – | – | – | 43.3 ± 3.9 µM | 15 µM | 138 ± 42 µM | 18 µM | 84 ± 8.2 µM | ≈ 15 μM | > 200 µM |
| COCCOCCOCCNC(=O)c1ccc2c(c1)SSSSS2 [compound 10] | – | 7 µM | 3.5 µM | 10.1 ± 0.1 µM | > 5 µM | – | – | – | – | ~10 µM | ~7 µM | – | – | 10.4 ± 0.3 µM | 6.5 µM | ~18 µM | – | – | – | – |
| CCN1C(=O)C2SSC1C(=O)N2CC(=O)NCC[N+](C)(C)C (stereo not shown) [compound 12] | – | 30 µM | 30 µM | > 100 µM | > 100 µM | – | – | – | – | > 100 µM | > 100 µM | – | – | > 100 µM | 30 µM | > 100 µM | – | – | ≈ 30 μM | – |

— article PMC8179002, “Inhibitors of thiol-mediated uptake” (Chemical Science, 2020)
